Reference: patent US20130143929A1, “FUNGICIDAL IMIDAZOLES” (EI DU PONT DE NEMOURS AND COMPANY, priority 2010, published 2013)
Marks after values point to notes of the source that are not given here.

Experiments:
Format in all cases: in vivo
[1] = tested on: Septoria tritici (the causal agent of wheat leaf blotch); assay: Test B: wheat leaf blotch, preventive spray on wheat seedlings, visual disease rating; details: wheat leaf blotch, preventive spray on wheat seedlings
Excerpt: (§1) General protocol for preparing test suspensions for Tests A-D: the test compounds were first dissolved in acetone in an amount equal to 3% of the final volume and then suspended at the desired concentration (in ppm) in acetone and purified water (50/50 mix by volume) containing 250 ppm of the surfactant Trem® 014 (polyhydric alcohol esters). The resulting test suspensions were then used in Tests A-D. Spraying a 200 ppm test suspension to the point of run-off on the test plants was the equivalent of a rate of 800 g/ha.
The test suspension was sprayed to the point of run-off on wheat seedlings. The following day the seedlings were inoculated with a spore suspension of Septoria tritici (the causal agent of wheat leaf blotch) and incubated in a saturated atmosphere at 24° C. for 48 h, and then moved to a growth chamber at 20° C. for 19 days, after which time visual disease ratings were made.
(§2) Results for Tests A-E are given in Table A. In the Table, a rating of 100 indicates 100% disease control and a rating of 0 indicates no disease control (relative to the controls). A dash (—) indicates no test results. An asterisk “*” next to the rating value indicates a 40 ppm test suspension was used.

[2] = tested on: Puccinia recondite f. sp. tritici (the causal agent of wheat leaf rust); assay: Test A: wheat leaf rust, preventive spray on wheat seedlings, visual disease rating; details: wheat leaf rust, preventive spray on wheat seedlings
Excerpt: as §1
The test suspension was sprayed to the point of run-off on wheat seedlings. The following day the seedlings were inoculated with a spore suspension of Puccinia recondite f. sp. tritici (the causal agent of wheat leaf rust) and incubated in a saturated atmosphere at 20° C. for 24 h, and then moved to a growth chamber at 20° C. for 7 days, after which time visual disease ratings were made.
as §2

[3] = tested on: Botrytis cinerea (the causal agent of tomato Botrytis); assay: Test C: tomato Botrytis, preventive spray on tomato seedlings, visual disease rating; details: tomato Botrytis, preventive spray on tomato seedlings
Excerpt: as §1
The test suspension was sprayed to the point of run-off on tomato seedlings. The following day the seedlings were inoculated with a spore suspension of Botrytis cinerea (the causal agent of tomato Botrytis) and incubated in a saturated atmosphere at 20° C. for 48 h, and then moved to a growth chamber at 24° C. for 3 days, after which time visual disease ratings were made.
as §2

[4] = tested on: Blumeria graminis f. sp. tritici (also known as Erysiphe graminis f. sp. tritici, the causal agent of wheat powdery mildew); assay: Test D: wheat powdery mildew, preventive spray on wheat seedlings, visual disease rating; details: wheat powdery mildew, preventive spray on wheat seedlings
Excerpt: as §1
The test suspension was sprayed to the point of run-off on wheat seedlings. The following day the seedlings were inoculated with a spore dust of Blumeria graminis f. sp. tritici, (also known as Erysiphe graminis f. sp. tritici, the causal agent of wheat powdery mildew) and incubated in a growth chamber at 20° C. for 8 days, after which time visual disease ratings were made.
as §2

[5] = asterisk: 40 ppm test suspension
[6] = no asterisk (standard test suspension concentration, not 40 ppm)

Structure (SMILES)	Test B rating (100 = 100% disease control, 0 = no disease control relative to the controls) [1, 5]	Test A rating (100 = 100% disease control, 0 = no disease control relative to the controls) [2, 5]	Test C rating (100 = 100% disease control, 0 = no disease control relative to the controls) [3, 5]	Test D rating (100 = 100% disease control, 0 = no disease control relative to the controls) [4, 5]	Test B rating (100 = 100% disease control, 0 = no disease control relative to the controls) [1, 6] [%]	Test A rating (100 = 100% disease control, 0 = no disease control relative to the controls) [2, 6] [%]	Test C rating (100 = 100% disease control, 0 = no disease control relative to the controls) [3, 6] [%]	Test D rating (100 = 100% disease control, 0 = no disease control relative to the controls) [4, 6] [%]
COc1ccc(C(O)c2c(Cl)nc(C)n2-c2c(F)cc(F)cc2Br)c(Cl)c1 (racemic) [compound 231]	100* %	100* %	99* %	98* %	–	–	–	–
OC(c1ccc(F)cc1Cl)c1c(Br)nc(Br)n1-c1ccc(F)cc1Cl (racemic) [compound 233]	100* %	100* %	95* %	72* %	–	–	–	–
COc1cc(F)c(C(O)c2c(Cl)ncn2-c2ccc(F)cc2Cl)c(F)c1 (racemic) [compound 234]	79* %	99* %	26* %	43* %	–	–	–	–
COc1cc(F)c(C(O)c2c(Br)nc(Br)n2-c2ccc(F)cc2Cl)c(F)c1 (racemic) [compound 235]	100* %	100* %	100* %	99* %	–	–	–	–
COc1ccc(C(O)c2c(Cl)nc(Cl)n2-c2ccc(F)cc2F)c(Cl)c1 (racemic) [compound 236]	100* %	100* %	100* %	99* %	–	–	–	–
COc1ccc(C(O)c2c(Cl)nc(Br)n2-c2c(F)cccc2F)c(Cl)c1 (racemic) [compound 237]	100* %	100* %	100* %	98* %	–	–	–	–
Cc1nc(Br)c(C(O)c2ccc(F)cc2Cl)n1-c1ccc(F)cc1F (racemic) [compound 240]	100* %	99* %	99* %	89* %	–	–	–	–
Cc1nc(Cl)c(C(O)c2ccc(F)cc2Cl)n1-c1ccc(F)cc1F (racemic) [compound 241]	100* %	100* %	99* %	21* %	–	–	–	–
Cc1ncc(C(O)c2ccc(Cl)cc2)n1-c1ccc(Cl)cc1Cl (racemic) [compound 242]	50* %	94* %	29* %	0* %	–	–	–	–
Cc1nc(Br)c(C(O)c2ccc(Cl)cc2)n1-c1ccc(Cl)cc1Cl (racemic) [compound 243]	95* %	98* %	91* %	79* %	–	–	–	–
Cc1nc(Cl)c(C(O)c2ccc(Cl)cc2)n1-c1ccc(Cl)cc1Cl (racemic) [compound 244]	100* %	98* %	78* %	21* %	–	–	–	–
Cc1nc(C)n(-c2c(F)cc(F)cc2Cl)c1C(O)c1ccc(F)cc1F (racemic) [compound 245]	100* %	100* %	91* %	84* %	–	–	–	–
Cc1nc(C)n(-c2c(F)cc(Cl)cc2F)c1C(O)c1ccc(F)cc1F (racemic) [compound 246]	100* %	100* %	37* %	0* %	–	–	–	–
Cc1nc(Br)n(-c2c(F)cc(F)cc2Cl)c1C(O)c1ccc(F)cc1F (racemic) [compound 250]	100* %	100* %	100* %	100* %	–	–	–	–
Cc1ncc(C(O)c2ccc(F)cc2Br)n1-c1ccc(F)cc1Cl (racemic) [compound 251]	–	–	–	–	93	100	98	0
Cc1nc(Br)c(C(O)c2ccc(F)cc2Br)n1-c1ccc(F)cc1Cl (racemic) [compound 253]	–	–	–	–	100	100	100	27
COc1ccc(C(O)c2c(Br)nc(C)n2-c2ccc(F)cc2Cl)c(Cl)c1 (racemic) [compound 254]	–	–	–	–	100	100	100	83
COc1ccc(C(O)c2c(Cl)nc(C)n2-c2ccc(F)cc2Cl)c(Cl)c1 (racemic) [compound 255]	–	–	–	–	96	100	8	0
Cc1ncc(C(O)c2ccc(Cl)cc2Cl)n1-c1ccc(F)cc1F (racemic) [compound 256]	–	–	–	–	6	55	0	0
